The source made the active and inactive calls. The rule behind the calls is not given here.
Columns and labels:
[1] = biological target: Mast/stem cell growth factor receptor Kit (Homo sapiens) (UniProt P10721); details: dose 10.0 nM
Description: Inhibition of human c-KIT at 10 nM using poly[Glu:Tyr] (4:1) as substrate in presence of [gamma-33P]-ATP by radiometric assay relative to control

[2] = biological target: Mast/stem cell growth factor receptor Kit (Homo sapiens) (UniProt P10721); details: dose 100.0 nM
Description: Inhibition of human c-KIT at 100 nM using poly[Glu:Tyr] (4:1) as substrate in presence of [gamma-33P]-ATP by radiometric assay relative to control

[3] = biological target: Macrophage colony-stimulating factor 1 receptor (Homo sapiens) (UniProt P07333); details: dose 100.0 nM
Description: Inhibition of human CSF1R at 100 nM using poly[Glu:Tyr] (4:1) as substrate in presence of [gamma-33P]-ATP by radiometric assay relative to control

[4] = biological target: Receptor-type tyrosine-protein kinase FLT3 (Homo sapiens) (UniProt P36888); details: dose 100.0 nM
Sequence of Receptor-type tyrosine-protein kinase FLT3 (Homo sapiens) (P36888 whole entry): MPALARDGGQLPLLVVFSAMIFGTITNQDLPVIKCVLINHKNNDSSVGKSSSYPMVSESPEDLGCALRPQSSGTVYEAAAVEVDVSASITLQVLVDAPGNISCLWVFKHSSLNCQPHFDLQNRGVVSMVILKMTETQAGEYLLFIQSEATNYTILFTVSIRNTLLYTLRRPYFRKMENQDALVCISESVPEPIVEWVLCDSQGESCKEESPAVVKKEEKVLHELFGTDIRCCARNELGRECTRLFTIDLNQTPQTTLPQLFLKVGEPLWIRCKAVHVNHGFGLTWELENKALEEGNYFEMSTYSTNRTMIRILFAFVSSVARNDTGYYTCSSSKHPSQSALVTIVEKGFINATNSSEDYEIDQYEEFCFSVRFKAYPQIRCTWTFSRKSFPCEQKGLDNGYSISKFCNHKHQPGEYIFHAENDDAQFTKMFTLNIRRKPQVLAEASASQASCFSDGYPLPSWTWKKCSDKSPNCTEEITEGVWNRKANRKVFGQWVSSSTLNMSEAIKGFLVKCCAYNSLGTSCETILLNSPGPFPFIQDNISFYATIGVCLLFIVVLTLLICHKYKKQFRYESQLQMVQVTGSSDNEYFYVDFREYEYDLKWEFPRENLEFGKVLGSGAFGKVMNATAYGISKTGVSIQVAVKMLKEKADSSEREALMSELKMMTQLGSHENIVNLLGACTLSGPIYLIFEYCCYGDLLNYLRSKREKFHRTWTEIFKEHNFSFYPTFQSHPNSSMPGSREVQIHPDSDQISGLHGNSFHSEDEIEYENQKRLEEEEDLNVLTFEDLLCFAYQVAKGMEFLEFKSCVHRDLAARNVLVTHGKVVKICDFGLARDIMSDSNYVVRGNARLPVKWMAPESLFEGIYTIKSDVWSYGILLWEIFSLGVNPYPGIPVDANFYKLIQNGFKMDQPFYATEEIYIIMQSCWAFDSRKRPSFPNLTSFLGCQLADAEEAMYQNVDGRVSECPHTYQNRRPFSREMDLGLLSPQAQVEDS

[5] = biological target: Macrophage colony-stimulating factor 1 receptor (Homo sapiens) (UniProt P07333); details: dose 10.0 nM
Description: Inhibition of human CSF1R at 10 nM using poly[Glu:Tyr] (4:1) as substrate in presence of [gamma-33P]-ATP by radiometric assay relative to control

[6] = biological target: Receptor-type tyrosine-protein kinase FLT3 (Homo sapiens) (UniProt P36888); details: dose 10.0 nM
[7] = biological target: T1, Macrophage colony-stimulating factor 1 receptor (Mus musculus) (UniProt P09581); experiment: Inhibition of CSF1R phosphorylation in mouse RAW 264.7 cells at 10 to 100 nM preincubated for 5 hrs followed by CSF stimulation for 10 mins by Western blot analysis; format: cell-based; details: RAW264.7, dose 10-100 nM, time 310.0 min
T1 sequence (whole entry): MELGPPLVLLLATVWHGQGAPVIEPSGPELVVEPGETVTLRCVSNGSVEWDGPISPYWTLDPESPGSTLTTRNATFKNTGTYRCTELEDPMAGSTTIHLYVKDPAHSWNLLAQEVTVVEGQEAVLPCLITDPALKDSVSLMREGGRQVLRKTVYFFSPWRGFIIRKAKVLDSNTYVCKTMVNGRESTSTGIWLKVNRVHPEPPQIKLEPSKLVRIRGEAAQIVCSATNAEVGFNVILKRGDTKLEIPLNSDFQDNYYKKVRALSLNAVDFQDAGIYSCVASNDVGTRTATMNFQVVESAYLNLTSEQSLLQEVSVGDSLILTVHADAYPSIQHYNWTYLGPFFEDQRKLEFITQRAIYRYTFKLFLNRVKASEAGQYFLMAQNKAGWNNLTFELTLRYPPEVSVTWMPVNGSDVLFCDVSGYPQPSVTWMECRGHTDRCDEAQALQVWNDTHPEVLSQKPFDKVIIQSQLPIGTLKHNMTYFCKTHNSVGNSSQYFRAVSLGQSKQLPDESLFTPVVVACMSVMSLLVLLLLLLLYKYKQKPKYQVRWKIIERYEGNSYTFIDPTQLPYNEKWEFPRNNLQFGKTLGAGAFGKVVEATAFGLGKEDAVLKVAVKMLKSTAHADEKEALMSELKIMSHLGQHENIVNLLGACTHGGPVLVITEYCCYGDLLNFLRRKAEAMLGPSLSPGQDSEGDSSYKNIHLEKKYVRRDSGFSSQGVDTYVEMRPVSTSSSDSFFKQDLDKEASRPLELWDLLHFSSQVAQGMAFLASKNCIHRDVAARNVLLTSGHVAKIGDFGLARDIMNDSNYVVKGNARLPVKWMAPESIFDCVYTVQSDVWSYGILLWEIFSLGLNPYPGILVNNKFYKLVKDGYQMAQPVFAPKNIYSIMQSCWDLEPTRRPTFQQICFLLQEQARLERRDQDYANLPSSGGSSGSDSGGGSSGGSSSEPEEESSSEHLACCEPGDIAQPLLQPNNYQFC

Sequence of Macrophage colony-stimulating factor 1 receptor (Homo sapiens) (P07333 whole entry): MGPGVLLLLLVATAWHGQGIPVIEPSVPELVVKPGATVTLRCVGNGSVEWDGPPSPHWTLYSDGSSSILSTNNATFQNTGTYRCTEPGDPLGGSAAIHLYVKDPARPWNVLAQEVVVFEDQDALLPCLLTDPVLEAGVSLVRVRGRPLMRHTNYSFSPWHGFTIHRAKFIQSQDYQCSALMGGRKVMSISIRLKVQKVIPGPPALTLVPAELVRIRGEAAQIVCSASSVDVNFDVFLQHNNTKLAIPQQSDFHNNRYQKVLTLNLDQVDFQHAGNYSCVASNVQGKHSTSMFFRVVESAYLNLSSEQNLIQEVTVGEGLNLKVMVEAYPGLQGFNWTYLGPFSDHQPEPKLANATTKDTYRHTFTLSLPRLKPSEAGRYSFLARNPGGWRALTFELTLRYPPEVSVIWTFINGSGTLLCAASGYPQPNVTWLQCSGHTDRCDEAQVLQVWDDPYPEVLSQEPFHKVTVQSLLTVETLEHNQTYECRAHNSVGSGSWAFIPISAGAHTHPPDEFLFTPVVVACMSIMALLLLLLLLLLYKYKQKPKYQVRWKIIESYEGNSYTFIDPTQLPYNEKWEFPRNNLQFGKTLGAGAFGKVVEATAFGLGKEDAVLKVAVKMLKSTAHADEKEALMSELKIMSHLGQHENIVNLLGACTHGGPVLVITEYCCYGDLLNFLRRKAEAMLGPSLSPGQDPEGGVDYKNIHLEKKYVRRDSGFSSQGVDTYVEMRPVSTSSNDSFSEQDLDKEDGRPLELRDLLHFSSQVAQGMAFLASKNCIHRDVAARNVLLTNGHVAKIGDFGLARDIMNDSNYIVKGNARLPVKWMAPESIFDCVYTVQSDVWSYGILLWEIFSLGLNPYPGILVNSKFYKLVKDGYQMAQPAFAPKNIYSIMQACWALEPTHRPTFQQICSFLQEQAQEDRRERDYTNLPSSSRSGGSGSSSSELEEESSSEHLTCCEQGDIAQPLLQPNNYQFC
Sequence of Mast/stem cell growth factor receptor Kit (Homo sapiens) (P10721 whole entry): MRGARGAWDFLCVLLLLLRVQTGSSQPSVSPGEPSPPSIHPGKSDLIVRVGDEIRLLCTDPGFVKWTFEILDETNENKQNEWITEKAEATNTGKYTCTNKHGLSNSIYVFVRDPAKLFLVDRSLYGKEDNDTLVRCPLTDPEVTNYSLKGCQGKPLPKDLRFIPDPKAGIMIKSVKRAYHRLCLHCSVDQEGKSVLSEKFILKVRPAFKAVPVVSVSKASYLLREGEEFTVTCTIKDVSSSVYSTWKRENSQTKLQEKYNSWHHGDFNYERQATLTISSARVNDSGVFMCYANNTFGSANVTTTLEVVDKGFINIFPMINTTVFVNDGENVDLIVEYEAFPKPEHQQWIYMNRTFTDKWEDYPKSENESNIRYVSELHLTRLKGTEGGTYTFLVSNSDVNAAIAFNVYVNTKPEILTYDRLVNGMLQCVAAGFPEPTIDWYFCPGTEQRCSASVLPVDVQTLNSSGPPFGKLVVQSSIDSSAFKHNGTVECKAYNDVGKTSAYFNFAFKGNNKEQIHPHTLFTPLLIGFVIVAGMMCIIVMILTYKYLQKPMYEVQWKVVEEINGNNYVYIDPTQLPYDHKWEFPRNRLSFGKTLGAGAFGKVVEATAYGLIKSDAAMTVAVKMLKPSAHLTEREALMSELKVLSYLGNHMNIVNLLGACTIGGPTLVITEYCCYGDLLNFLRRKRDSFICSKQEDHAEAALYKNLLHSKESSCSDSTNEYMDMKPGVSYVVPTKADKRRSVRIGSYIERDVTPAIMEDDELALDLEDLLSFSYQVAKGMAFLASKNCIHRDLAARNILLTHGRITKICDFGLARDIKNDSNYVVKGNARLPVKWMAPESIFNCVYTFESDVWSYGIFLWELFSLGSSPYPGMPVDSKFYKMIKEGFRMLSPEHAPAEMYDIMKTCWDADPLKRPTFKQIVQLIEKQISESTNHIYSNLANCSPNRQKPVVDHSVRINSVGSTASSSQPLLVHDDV

| inhibition [1] [%] | inhibition [2] [%] | inhibition [3] [%] | inhibition [4] [%] | inhibition [5] [%] | inhibition [6] [%] | inhibition [7] | Compound |
| --- | --- | --- | --- | --- | --- | --- | --- |
| 43 | 89 | – | – | – | – | – | CCN1CCN(Cc2ccc(C(=O)Nc3ccc(C)c(NC(=O)c4n[nH]c5ccccc45)c3)cc2C(F)(F)F)CC1 |
| 22 | 49 | – | – | – | – | – | CCN1CCN(Cc2ccc(C(=O)Nc3ccc(C)c(NCc4cnc5cccnn45)c3)cc2C(F)(F)F)CC1 |
| 14 | 54 | – | – | – | – | – | CCN1CCN(Cc2ccc(C(=O)Nc3ccc(C)c(NC(=O)c4ccn(C)n4)c3)cc2C(F)(F)F)CC1 |
| 2 | 2 | 94 | 20 | 76 | 19 | – | CNC(=O)c1cc(Oc2ccc3nc(N[C@H]4CCCC[C@H]4O)sc3c2)ccn1 |
| 13 | 51 | – | 11 | – | 1 | – | FC(F)(F)c1ccc(CNc2ccc(Cc3c[nH]c4ncc(Cl)cc34)cn2)cn1 |
| 2 | 33 | – | 4 | 14 | 0 | – | Cc1cn(-c2cc(NC(=O)c3ccc(C)c(Nc4nccc(-c5cccnc5)n4)c3)cc(C(F)(F)F)c2)cn1 |
| 17 | 45 | – | – | – | – | – | Cc1ccc(NCc2ccc(C(F)(F)F)nc2)cc1NC(=O)c1cnn2ccccc12 |
| 10 | 49 | – | – | – | – | – | CCN1CCN(Cc2ccc(C(=O)Nc3ccc(C)c(NC(=O)c4cnc5ncccn45)c3)cc2C(F)(F)F)CC1 |
| 4 | 32 | – | – | – | – | – | Cc1ccc(NC(=O)c2ccc(C(F)(F)F)nc2)cc1NC(=O)c1cnc2cccnn12 |
| 6 | 25 | – | – | – | – | – | Cc1ccc(NCc2ccc(C(F)(F)F)nc2)cc1NC(=O)c1cnc2cccnn12 |
| 41 | 89 | – | – | – | – | – | CCN1CCN(Cc2ccc(C(=O)Nc3ccc(C)c(NC(=O)c4c[nH]cn4)c3)cc2C(F)(F)F)CC1 |
| 0 | 33 | – | – | – | – | – | Cc1cn(-c2cc(NC(=O)c3ccc(C)c(NC(=O)c4cnc5ccccn45)c3)cc(C(F)(F)F)c2)cn1 |
| 27 | 64 | – | – | – | – | – | CCN1CCN(Cc2ccc(C(=O)Nc3ccc(C)c(NC(=O)c4cnc5cccnn45)c3)cc2C(F)(F)F)CC1 |
| 25 | 63 | – | – | – | – | – | CCN1CCN(Cc2ccc(C(=O)Nc3ccc(C)c(NCc4cnc5ccc(OC)nn45)c3)cc2C(F)(F)F)CC1 |
| 30 | 53 | – | – | – | – | Active | Cc1ccc(NC(=O)c2ccc(C(F)(F)F)nc2)cc1NC(=O)c1cnn2ccccc12 |
| 30 | 70 | – | – | – | – | – | CCN1CCN(Cc2ccc(C(=O)Nc3ccc(C)c(NC(=O)c4cnc5ccccn45)c3)cc2C(F)(F)F)CC1 |
| 96 | 98 | – | – | – | – | – | CCN1CCN(Cc2ccc(C(=O)Nc3ccc(C)c(NC(=O)c4n[nH]c5ncccc45)c3)cc2C(F)(F)F)CC1 |
| 27 | 73 | – | – | – | – | – | CCN1CCN(Cc2ccc(C(=O)Nc3ccc(C)c(NC(=O)c4cnn5ccccc45)c3)cc2C(F)(F)F)CC1 |
| 31 | 81 | – | – | – | – | – | CCN1CCN(Cc2ccc(C(=O)Nc3ccc(C)c(NC(=O)c4ncc[nH]4)c3)cc2C(F)(F)F)CC1 |
| 10 | 40 | – | – | – | – | – | CCN1CCN(Cc2ccc(C(=O)Nc3ccc(C)c(NC(=O)c4cnnc5ccccc45)c3)cc2C(F)(F)F)CC1 |
| 4 | 8 | – | 11 | – | 4 | – | COc1ccc(COc2ccc(Cc3cnc(N)nc3N)cc2OC)cc1 |
| 0 | 17 | – | – | – | – | – | CCN1CCN(Cc2ccc(C(=O)Nc3ccc(C)c(NC(=O)c4cc[nH]n4)c3)cc2C(F)(F)F)CC1 |
| 7 | 50 | – | – | – | – | – | Cc1cn(-c2cc(NC(=O)c3ccc(C)c(NC(=O)c4cnc5cccnn45)c3)cc(C(F)(F)F)c2)cn1 |
| 14 | 56 | – | – | – | – | – | Cc1ccc(NCc2ccc(C(F)(F)F)nc2)cc1NC(=O)c1cnc2ccccn12 |
| 96 | 98 | – | – | – | – | – | CCN1CCN(Cc2ccc(NC(=O)c3ccc(C)c(NC(=O)c4cnc5cccnn45)c3)cc2C(F)(F)F)CC1 |

From ChEMBL document CHEMBL4813977, “Discovery of potent colony-stimulating factor 1 receptor inhibitors by replacement of hinge-binder moieties” (Eur J Med Chem, 2021)
